Values quoted from earlier work, collected in patent publication US20210215697A1, “Serum Biomarkers” (BerGenBio ASA, priority 2018, published 2021).

Legend:
OCI-AML5 cells = details: Ben-Batalla et al, 2013

| IC50 to Axl inhibitors (in words) (MOLM13 cell line; MOLM13, Ben-Batalla et al, 2013) | IC50 to Axl inhibitors (in words) (Mv4-11 cell line; Mv4-11, Ben-Batalla et al, 2013) | IC50 to Axl inhibitors (in words) (Kasumi cell line; Ben-Batalla et al, 2013) | IC50 to Axl inhibitors (in words) (OCI-M1 cell line; OCI-M1, Ben-Batalla et al, 2013) | IC50 to Axl inhibitors (in words) (OCI-AML5 cells) | IC50 (MOLM13 cell line; MOLM13, "responder" AML cell line) [nM] | IC50 (Mv4-11 cell line; Mv4-11, "responder" AML cell line) [nM] | IC50 (Kasumi cell line; "non-responder" AML cell line) [nM] | IC50 (OCI-M1 cell line; OCI-M1, "non-responder" AML cell line) [nM] | SMILES |
| --- | --- | --- | --- | --- | --- | --- | --- | --- | --- |
| low | low | high | high | high |  |  |  |  | Nc1nc(Nc2ccc3c(c2)CC[C@@H](N2CCCC2)CC3)nn1-c1cc2c(nn1)-c1ccccc1CCC2 [BGB324, 1-(6,7-dihydro-5H-benzo[6,7]cyclohepta[1,2-c]pyridazin-3-yl)-N3-((7-(S)-pyrrolidin-1-yl)-6,7,8,9-tetrahydro-5H-benzo[7]annulene-2-yl)-1H-1,2,4-triazole-3,5-diamine] |
|  |  |  |  |  | 450 | 140 | 1200 | 1800 | Nc1nc(Nc2ccc3c(c2)CC[C@@H](N2CCCC2)CC3)nn1-c1cc2c(nn1)-c1ccccc1CCC2 [BGB324/R428/bemcentinib, bemcentinib] |
